Counter-ions that a name gives are not always drawn. Like-named read-outs stand apart in the source and are kept apart here.
Target: human PDE10A (UniProt Q9Y233)
Assay: Measurement of PDE activity (recombinant enzyme, HTRF cAMP kit)
Type: biochemical
Conditions: Table 1, substrate 20 nM for PDE10, 60 minutes at 29 C
Method in brief: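 Recombinant human PDE10A (10–250 pM range across PDEs) with 20 nM cAMP substrate in 20 mM Tris-HCl pH 7.5, 10 mM MgCl2, 0.1% BSA, compound pre-mixed with enzyme. Ran 60 min at 29 °C. Remaining cAMP read by HTRF, converted to % of uninhibited activity, and IC50 fitted.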

Sequence of human PDE10A (Q9Y233 290-1055 limits assumed): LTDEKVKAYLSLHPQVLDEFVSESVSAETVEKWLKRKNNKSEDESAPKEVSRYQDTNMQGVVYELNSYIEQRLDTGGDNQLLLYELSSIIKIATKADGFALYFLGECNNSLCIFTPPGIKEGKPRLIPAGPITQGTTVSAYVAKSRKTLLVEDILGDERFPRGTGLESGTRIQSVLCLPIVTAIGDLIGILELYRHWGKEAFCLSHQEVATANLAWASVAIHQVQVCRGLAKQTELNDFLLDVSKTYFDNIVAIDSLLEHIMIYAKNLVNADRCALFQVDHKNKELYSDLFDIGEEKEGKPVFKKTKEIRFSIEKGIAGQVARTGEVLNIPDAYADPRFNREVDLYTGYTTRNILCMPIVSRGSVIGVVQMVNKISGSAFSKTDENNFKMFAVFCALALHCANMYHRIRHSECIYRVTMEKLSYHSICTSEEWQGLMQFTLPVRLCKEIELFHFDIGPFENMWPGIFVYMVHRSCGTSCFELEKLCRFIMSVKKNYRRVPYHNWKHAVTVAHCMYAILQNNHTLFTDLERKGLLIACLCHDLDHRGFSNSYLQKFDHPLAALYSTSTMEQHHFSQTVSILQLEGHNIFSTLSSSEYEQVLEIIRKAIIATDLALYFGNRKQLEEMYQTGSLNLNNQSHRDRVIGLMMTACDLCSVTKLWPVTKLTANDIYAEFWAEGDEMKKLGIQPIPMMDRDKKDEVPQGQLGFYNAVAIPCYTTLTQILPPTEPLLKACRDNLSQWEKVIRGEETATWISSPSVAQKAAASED

SMILES | IC50 (read-out: IC50) | IC50
O=c1c2c(-c3ccncc3)cccc2ccn1C1CC1c1ccc2ccccc2n1 (single isomer, unassigned; (+)) [Example 222a, (+) 8-(pyridin-4-yl)-2-(2-(quinolin-2-yl)cyclopropyl)isoquinolin-1(2H)-one] | < 100 nM | 
O=c1c2c(-c3cccc(O)c3)csc2cnn1CCc1ccc2ccccc2n1 [Example 31, 3-(3-hydroxyphenyl)-5-[2-(quinolin-2-yl)ethyl]thieno[2,3-d]pyridazin-4(5H)-one] | 100 to 200 nM | 
N#CCc1ccc(-c2csc3cnn(CCc4ccc5ccccc5n4)c(=O)c23)cc1 [Example 15, (4-{4-oxo-5-[2-(quinolin-2-yl)ethyl]-4,5-dihydrothieno[2,3-d]pyridazin-3-yl}phenyl)acetonitrile] | 200 to 500 nM | 
O=c1c2c(-c3ccoc3)cccc2cnn1CCc1ccc2ccccc2n1 [Example 127, 8-(Furan-3-yl)-2-[2-(quinolin-2-yl)ethyl]phthalazin-1(2H)-one] | < 100 nM | 
O=c1c2c(-c3ccc(F)cc3)csc2cnn1CCc1ccc2ccccc2n1 [Example 12, 3-(4-fluorophenyl)-5-[2-(quinolin-2-yl)ethyl]thieno[2,3-d]pyridazin-4(5H)-one] | < 100 nM | 
O=c1c2c(-c3cccnc3)csc2ccn1C1CC1c1ccc2sccc2n1 (stereo not drawn) [compound 288] | < 100 nM | 
O=c1c2c(-c3ccncc3)csc2c(-c2ccncc2)nn1CCc1ccccn1 [Example 5, 3,7-Di(pyridin-4-yl)-5-[2-(pyridin-2-yl)ethyl]thieno[2,3-d]pyridazin-4(5H)-one] | < 100 nM | 
Cc1ccc(-c2csc3cnn(CCc4ccc5ccccc5n4)c(=O)c23)cc1 [Example 7, 3-(4-methylphenyl)-5-[2-(quinolin-2-yl)ethyl]thieno[2,3-d]pyridazin-4(5H)-one] | 200 to 500 nM | 
O=c1c2c(-c3ccncc3)csc2ccn1CCc1ccc2cc(F)ccc2n1 [compound 309, 5-[2-(6-fluoroquinolin-2-yl)ethyl]-3-(pyridin-4-yl)thieno[3,2-c]pyridin-4(5H)-one] | < 100 nM | 
O=c1c2c(NC3CCCOC3)cccc2cnn1CCc1cn2ccccc2n1 (stereo not drawn) [compound 392, hydrochloride] | < 100 nM | 
Cc1ccccc1-c1cccc2cnn(CCc3ccc4ccccc4n3)c(=O)c12 [Example 109, 8-(2-Methylphenyl)-2-[2-(quinolin-2-yl)ethyl]phthalazin-1(2H)-one] | 200 to 500 nM | 
O=c1c2c(-c3cc[nH]n3)csc2cnn1CCc1ccc2ccccc2n1 [compound 315, 3-(1H-pyrazol-3-yl)-5-[2-(quinolin-2-yl)ethyl]thieno[2,3-d]pyridazin-4(5H)-one] | < 100 nM | 
O=c1c2c(-c3cc(F)cc(F)c3)cccc2cnn1CCc1ccc2ccccc2n1 [Example 156, 8-(3,5-Difluorophenyl)-2-[2-(quinolin-2-yl)ethyl]phthalazin-1(2H)-one] | 100 to 200 nM | 
COc1ccc(-c2cccc3cnn(CCc4ccc5ccccc5n4)c(=O)c23)cc1F [Example 154, 8-(3-Fluoro-4-methoxyphenyl)-2-[2-(quinolin-2-yl)ethyl]phthalazin-1(2H)-one] | 200 to 500 nM | 
O=c1c2cccc(-c3cncnc3)c2cnn1CCc1cn2ccccc2n1 [Example 197, 2-[2-(Imidazo[1,2-a]pyridin-2-yl)ethyl]-5-(pyrimidin-5-yl)phthalazin-1(2H)-on] | < 100 nM | 
Cc1ccc(-c2cccc3cnn(CCc4ccc5ccccc5n4)c(=O)c23)c(F)c1 [Example 163, 8-(2-Fluoro-4-methylphenyl)-2-[2-(quinolin-2-yl)ethyl]phthalazin-1(2H)-one] | 200 to 500 nM | 
O=c1c2cccc(-c3ccncc3)c2cnn1CCc1cn2ccccc2n1 [compound 401, 2-[2-(imidazo[1,2-a]pyridin-2-yl)ethyl]-5-(pyridin-4-yl)phthalazin-1(2H)-one] | < 100 nM | 
O=c1c2c(-c3ccncc3)ccnc2cnn1CCc1ccc2ccccc2n1 [compound 404, 4-(pyridin-4-yl)-6-[2-(quinolin-2-yl)ethyl]pyrido[2,3-d]pyridazin-5(6H)-one] | < 100 nM | 
O=c1c2c(-c3ccncc3)cccc2c(-c2ccncc2)nn1CCc1cn2ccccc2n1 [compound 367, 2-[2-(imidazo[1,2-a]pyridin-2-yl)ethyl]-4,8-di(pyridin-4-yl)phthalazin-1(2H)-one] | < 100 nM | 
O=c1c2c(-c3cccnc3)csc2ccn1C1CC1c1ccc2ccccc2n1 (stereo not drawn) [compound 289] | < 100 nM | 
O=c1c2c(-c3cncnc3)csc2ccn1C1CC1c1ccc2ccccc2n1 (stereo not drawn) [compound 282] | < 100 nM | 
Cn1nccc1-c1csc2cnn(CCc3ccc4ccccc4n3)c(=O)c12 [Example 88, 3-(1-methyl-1H-pyrazol-5-yl)-5-[2-(quinolin-2-yl)ethyl]thieno[2,3-d]pyridazin-4(5H)-one] | < 100 nM | 
O=c1c2c(N3C4CCC3COC4)cccc2cnn1CCc1cn2ccccc2n1 [compound 338, 2-[2-(imidazo[1,2-a]pyridin-2-yl)ethyl]-8-(3-oxa-8-azabicyclo[3.2.1]oct-8-yl)phthalazin-1(2H)-one] |  | < 100 nM
O=c1c2c(N3CCC(F)(F)CC3)cccc2ccn1C1CC1c1ccc2ccccc2n1 (single isomer, unassigned) [Example 260, anti (−) 8-(4,4-difluoropiperidin-1-yl)-2-(2-(quinolin-2-yl)cyclopropyl)isoquinolin-1(2H)-one] | < 100 nM | 
Cc1cnc(CCn2ncc3scc(-c4ccncc4)c3c2=O)c(C)c1 [compound 321, 5-[2-(3,5-dimethylpyridin-2-yl)ethyl]-3-(pyridin-4-yl)thieno[2,3-d]pyridazin-4(5H)-one] | 100 to 200 nM | 

Second part, led by results:

IC50 (read-out: IC50) | SMILES | IC50
100 to 200 nM | O=c1c2c(NC3CCOCC3)cccc2cnn1CCc1cn2ccccc2n1 [compound 384, 2-[2-(imidazo[1,2-a]pyridin-2-yl)ethyl]-8-(tetrahydro-2H-pyran-4-ylamino)phthalazin-1(2H)-one] | 
< 100 nM | O=c1c2c(-c3ccncc3)coc2ccn1CCc1nc2ccccc2[nH]1 [Example 229, 5-(2-(1H-Benzo[d]imidazol-2-yl)ethyl)-3-(pyridin-4-yl)furo[3,2-c]pyridin-4(5H)-one hydrochloride] | 
< 100 nM | O=c1c2c(C3CCOCC3)cccc2ccn1C1CC1c1ccc2ccccc2n1 (stereo not drawn) [Example 257, anti 2-(2-(quinolin-2-yl)cyclopropyl)-8-(tetrahydro-2H-pyran-4-yl)isoquinolin-1(2H)-one] | 
< 100 nM | O=c1c2c(-c3ccncc3)cccc2cnn1C1CC1c1ccc2ccccc2n1 (racemic) [Example 226, anti (rac) 8-Pyridin-4-yl-2-(2-quinolin-2-yl-cyclopropyl)-2H-phthalazin-1-one 2,2,2,-trifluoroacetate] | 
200 to 500 nM | Cc1ccc(-c2csc3cnn(CCc4ccc5ccccc5n4)c(=O)c23)c(F)c1 [Example 90, 3-(2-fluoro-4-methylphenyl)-5-[2-(quinolin-2-yl)ethyl]thieno[2,3-d]pyridazin-4(5H)-one] | 
< 100 nM | O=c1c2c(-c3ccc(F)nc3)cccc2ccn1C1CC1c1ccc2ccccc2n1 (single isomer, unassigned) [Example 237, anti (−) 8-(6-fluoropyridin-3-yl)-2-(2-(quinolin-2-yl)cyclopropyl)isoquinolin-1(2H)-one] | 
100 to 200 nM | O=c1c2c(-c3ccccc3)csc2cnn1CCc1ccc2ccccc2n1 [Example 85, 3-phenyl-5-[2-(quinolin-2-yl)ethyl]thieno[2,3-d]pyridazin-4(5H)-one] | 
< 100 nM | O=c1c2c(N3CCC4(COC4)C3)cccc2cnn1CCc1cn2ccccc2n1 [compound 339, 2-[2-(imidazo[1,2-a]pyridin-2-yl)ethyl]-8-(2-oxa-6-azaspiro[3.4]oct-6-yl)phthalazin-1(2H)-one] | 
< 100 nM | O=c1c2c(-c3ccncc3)cccc2ccn1/C=C/c1ccc2ccccc2n1 [Example 221, (E)-8-(Pyridin-4-yl)-2-(2-(quinolin-2-yl)vinyl)isoquinolin-1(2H)-one] | 
200 to 500 nM | O=c1c2c(-c3ccc(F)c(F)c3F)csc2cnn1CCc1ccc2ccccc2n1 [Example 60, 5-[2-(quinolin-2-yl)ethyl]-3-(2,3,4-trifluorophenyl)thieno[2,3-d]pyridazin-4(5H)-one] | 
100 to 200 nM | CC(=O)N1CCCC(Nc2cccc3cnn(CCc4cn5ccccc5n4)c(=O)c23)C1 (stereo not drawn) [compound 389, hydrochloride] | 
< 100 nM | O=c1c2cccc(-c3cccnc3)c2cnn1CCc1ccc2ccccc2n1 [compound 402, 5-(pyridin-3-yl)-2-[2-(quinolin-2-yl)ethyl]phthalazin-1(2H)-one] | 
< 100 nM | O=c1c2c(-c3ccncc3)csc2cnn1CCc1ccc2cc(F)ccc2n1 [Example 93, 5-[2-(6-Fluoroquinolin-2-yl)ethyl]-3-(pyridin-4-yl)thieno[2,3-d]pyridazin-4(5H)-one] | 
100 to 200 nM | O=c1c2c(-c3cccs3)csc2cnn1CCc1ccc2ccccc2n1 [Example 34, 5-[2-(quinolin-2-yl)ethyl]-3-(thiophen-2-yl)thieno[2,3-d]pyridazin-4(5H)-one] | 
< 100 nM | O=c1c2c(-c3ccnnc3)coc2ccn1[C@@H]1C[C@H]1c1ccc2ccccc2n1 (relative stereo) [Example 232, anti 3-(Pyridazin-4-yl)-5-(2-(quinolin-2-yl)cyclopropyl)furo[3,2-c]pyridin-4(5H)-one] | 
< 100 nM | O=c1c2c(-c3ccncc3)csc2ccn1C1CC1c1ccc2ccccc2n1 (racemic) [Example 224, anti (rac) 3-(Pyridin-4-yl)-5-(2-(quinolin-2-yl)cyclopropyl)thieno[3,2-c]pyridin-4(5H)-one] | 
< 100 nM | O=c1c2c(-c3ccc(F)cc3)cccc2ccn1[C@@H]1C[C@H]1c1ccc2ccccc2n1 (relative stereo) [Example 267, anti 8-(4-fluorophenyl)-2-(2-(quinolin-2-yl)cyclopropyl)isoquinolin-1(2H)-one] | 

Source: patent US20130116241A1, “NOVEL INHIBITOR COMPOUNDS OF PHOSPHODIESTERASE TYPE 10A” (AbbVie Inc., priority 2011, published 2013)
